Counter-ions that a name gives are not always drawn.
Molecular target: T1, histamine H4 receptor (Homo sapiens, UniProt Q9H3N8)
T1 construct: expressed in transfected cells; host or cells: CHO cells
Test: H4 binding, method 1 ([3H]-histamine filtration binding on CHO cell membranes)
Settings: for Ki: H4 binding, method 1, Ki calculated from IC50 (Cheng-Prussoff); for inhibition at 20 µM / inhibition at 10 µM: 1.5 h
In short: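 Membranes from CHO cells expressing human H4 receptor (20-35 μg/well) incubated 90 min at room temperature with 3 nM [3H]-histamine in 50 mM Tris-HCl pH 7.4, ± competitor. Bound label separated by filtration on PEI-soaked GF/B filters and counted by scintillation; non-specific binding with 10 μM JNJ7777120.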

Ki [nM]	SMILES	also measured
43.3	CN[C@H]1CCN(c2cc(NC(C)(C)C)nc(N)n2)C1 [Example 207, N^4-(tert-Butyl)-6-[(3S)-3-(methylamino)pyrrolidin-1-yl]pyrimidine-2,4-diamine]	–
1.78	CN[C@@H]1CCN(c2cc(NCc3ccc(F)cc3)nc(N)n2)C1 [Example 155, N^4-(4-Fluorobenzyl)-6-[(3R)-3-(methylamino)pyrrolidin-1-yl]pyrimidine-2,4-diamine]	–
577	C[C@@H]1CN(c2cc(NCc3ccccc3)nc(N)n2)CCN1 [Example 259, N^4-Benzyl-6-[(3R)-3-methylpiperazin-1-yl]pyrimidine-2,4-diamine]	–
901	CN[C@@H]1CCN(c2cc(NCc3cccc(F)c3F)nc(N)n2)C1 [Example 272, N^4-(2,3-Difluorobenzyl)-6-[(3R)-3-(methylamino)pyrrolidin-1-yl]pyrimidine-2,4-diamine]	–
380	CN[C@@H]1CCN(c2cc(NCc3ccccc3)nc(N)n2)C1 [Example 254, N^4-Benzyl-6-[(3R)-3-(methylamino)pyrrolidin-1-yl]pyrimidine-2,4-diamine]	–
39.3	CCNc1cc(N2CC[C@H](NC)C2)nc(N)n1 [Example 205, N^4-Ethyl-6-[(3S)-3-(methylamino)pyrrolidin-1-yl]pyrimidine-2,4-diamine]	–
238	C[C@H]1CN(c2cc(NCc3ccc(F)cc3)nc(N)n2)CCN1 [Example 240, N^4-(4-Fluorobenzyl)-6-[(3S)-3-methylpiperazin-1-yl]pyrimidine-2,4-diamine]	–
266	CN[C@@H]1CCN(c2cc(NCC3CCC3)nc(N)n2)C1 [Example 243, N^4-(Cyclobutylmethyl)-6-[(3R)-3-(methylamino)pyrrolidin-1-yl]pyrimidine-2,4-diamine]	–
3180	CNC1CN(c2cc(N3CCCCC3)nc(N)n2)C1 [Example 295, 4-[3-(Methylamino)azetidin-1-yl]-6-piperidin-1-ylpyrimidin-2-amine]	–
88	NCCNc1cc(NCC2CC2)ncn1 [Example 220, N-(2-Aminoethyl)-N′-(cyclopropylmethyl)pyrimidine-4,6-diamine]	–
–	CC(C)(C)CCNc1cc(N2CC(N3CCOCC3)C2)ncn1 [Example 312, N-(3,3-Dimethylbutyl)-6-(3-morpholin-4-ylazetidin-1-yl)pyrimidin-4-amine]	inhibition at 20 µM: 21%
205	CNC1CN(c2cc(N3CC(F)(F)C3)nc(N)n2)C1 [Example 236, 4-(3,3-Difluoroazetidin-1-yl)-6-[3-(methylamino)azetidin-1-yl]pyrimidin-2-amine]	–
–	c1nc(NC2CC2)cc(N2CCCNCC2)n1 [Example 314, N-Cyclopropyl-6-(1,4-diazepan-1-yl)pyrimidin-4-amine]	Method 1, activity at top dose (10 μM) (top dose 10 μM): No activity at top
2.49	CNC1CN(c2cc(NCc3ccc(F)cc3F)nc(N)n2)C1 [Example 157, N^4-(2,4-Difluorobenzyl)-6-[3-(methylamino)azetidin-1-yl]pyrimidine-2,4-diamine]	–
16.5	CNC1CN(c2cc(NC3CCC3)ncn2)C1 [Example 179, N-Cyclobutyl-6-[3-(methylamino)azetidin-1-yl]pyrimidin-4-amine]	–
5.2	CN[C@@H]1CCN(c2cc(NC3(C)CC3)nc(N)n2)C1 [Example 149, 6-[(3R)-3-(Methylamino)pyrrolidin-1-yl]-N^4-(1-methylcyclopropyl)pyrimidine-2,4-diamine]	–
355	C[C@H]1CN(c2cc(NCc3ccccc3)nc(N)n2)CCN1 [Example 251, N^4-Benzyl-6-[(3S)-3-methylpiperazin-1-yl]pyrimidine-2,4-diamine]	–
27.7	CC(C)(C)CNc1cc(N2CC(N)C2)nc(N)n1 [Example 190, 6-(3-Aminoazetidin-1-yl)-N^4-(2,2-dimethylpropyl)pyrimidine-2,4-diamine]	–
33.2	CCNc1cc(N2CC(N3CCCC3)C2)nc(N)n1 [Example 197, N^4-Ethyl-6-(3-pyrrolidin-1-ylazetidin-1-yl)pyrimidine-2,4-diamine]	–

Ki [nM]	SMILES	also measured
0.88	CCCNc1cc(N2CC(NC)C2)nc(N)n1 [Example 73, 6-[3-(Methylamino)azetidin-1-yl]-N^4-propylpyrimidine-2,4-diamine]	–
–	CC(C)(C)CNc1cc(N2C[C@H]3C[C@@]3(N)C2)ncn1 [Example 297, (1S,5R)-3-{6-[(2,2-Dimethylpropyl)amino]pyrimidin-4-yl}-3-azabicyclo[3.1.0]hexan-1-amine]	inhibition at 10 µM: 30%
17.6	CN[C@@H]1CCN(c2cc(NC3CCC3)ncn2)C1 [Example 181, N-Cyclobutyl-6-[(3R)-3-(methylamino)pyrrolidin-1-yl]pyrimidin-4-amine]	–
–	CNC1CCCN(c2cc(NCC3CC3)nc(N)n2)C1 (stereo not shown) [Example 294, N^4-(Cyclopropylmethyl)-6-[3-(methylamino)piperidin-1-yl]pyrimidine-2,4-diamine]	inhibition at 20 µM: 91%
–	CCNc1cc(N2CC(C)(NC)C2)nc(N)n1 [Example 257, N^4-Ethyl-6-[3-methyl-3-(methylamino)azetidin-1-yl]pyrimidine-2,4-diamine]	inhibition at 10 µM: 100%
36.5	CN[C@@H]1CCN(c2cc(NC(C)C)ncn2)C1 [Example 202, N-Isopropyl-6-[(3R)-3-(methylamino)pyrrolidin-1-yl]pyrimidin-4-amine]	–
177	CC(C)Nc1cc(N2CCC(N)CC2)nc(N)n1 [Example 234, 6-(4-Aminopiperidin-1-yl)-N^4-isopropylpyrimidine-2,4-diamine]	–
–	c1nc(NC[C@@H]2CCCO2)cc(N[C@H]2CCNC2)n1 [Example 290, N-[(3S)-Pyrrolidin-3-yl]-N′-[(2S)-tetrahydrofuran-2-ylmethyl]pyrimidine-4,6-diamine]	inhibition at 10 µM: 24%
2.62	CNC1CN(c2cc(NCC(C)(C)C)nc(N)n2)C1 [Example 159, N^4-(2,2-Dimethylpropyl)-6-[3-(methylamino)azetidin-1-yl]pyrimidine-2,4-diamine hydrochloride]	–
10.6	CN[C@@H]1CCN(c2cc(NCC3CCCC3)nc(N)n2)C1 [Example 174, N^4-(Cyclopentylmethyl)-6-[(3R)-3-(methylamino)pyrrolidin-1-yl]pyrimidine-2,4-diamine]	–
–	CNC1CN(c2cc(NCC3CC3)nc(NCC3CC3)n2)C1 [Example 276, N,N′-Bis(cyclopropylmethyl)-6-[3-(methylamino)azetidin-1-yl]pyrimidine-2,4-diamine]	Method 1, % at 3.16 μM (at 3.16 μM): 14% at 3.16 μM
12.3	CCNc1cc(N2CCCNCC2)nc(N)n1 [Example 175, 6-(1,4-Diazepan-1-yl)-N^4-ethylpyrimidine-2,4-diamine]	–
46.4	CNCC1CN(c2cc(NCC(C)(C)C)nc(N)n2)C1 [Example 209, N^4-(2,2-Dimethylpropyl)-6-{3-[(methylamino)methyl]azetidin-1-yl}pyrimidine-2,4-diamine]	–
502	CC(C)(C)CCNc1cc(N[C@H]2CCNC2)ncn1 [Example 6, N-(3,3-Dimethylbutyl)-N′-[(3S)-pyrrolidin-3-yl]pyrimidine-4,6-diamine]	–
72.4	CNCCNc1cc(NCC(C)(C)C)nc(N)n1 [Example 143, N^4-(2,2-Dimethylpropyl)-N^6-[2-(methylamino)ethyl]pyrimidine-2,4,6-triamine]	–
3.82	CCNc1cc(N2CC(NC)C2)nc(N)n1 [Example 164, N^4-Ethyl-6-[3-(methylamino)azetidin-1-yl]pyrimidine-2,4-diamine]	–
–	CCN(CC)CCN(C)c1cc(NCC2CC2)ncn1 [Example 306, N′-(Cyclopropylmethyl)-N-[2-(diethylamino)ethyl]-N-methylpyrimidine-4,6-diamine]	inhibition at 10 µM: 18%
33.9	CN[C@@H]1CCN(c2cc(NC3CCC3)nc(N)n2)C1 [Example 199, N^4-Cyclobutyl-6-[(3R)-3-(methylamino)pyrrolidin-1-yl]pyrimidine-2,4-diamine]	–
13.9	CCCNc1cc(N2CC(N)C2)nc(N)n1 [Example 232, 6-(3-Aminoazetidin-1-yl)-N^4-propylpyrimidine-2,4-diamine]	–

SMILES	Ki [nM]	also measured
CC(C)Nc1cc(N2C[C@@H]3CCCN[C@@H]3C2)nc(N)n1 [Example 169, N^4-Isopropyl-6-[(4aS,7aS)-octahydro-6H-pyrrolo[3,4-b]pyridin-6-yl]pyrimidine-2,4-diamine]	6.77	–
CN1C[C@@H]2C[C@H]1CN2c1cc(NCC(C)(C)C)nc(N)n1 [Example 191, N^4-(2,2-Dimethylpropyl)-6-[(1S,4S)-5-methyl-2,5-diazabicyclo[2.2.1]hept-2-yl]pyrimidine-2,4-diamine]	28.2	–
C[C@H]1CN(c2cc(NCC3CC3)nc(N)n2)CCN1 [Example 184, N^4-(Cyclopropylmethyl)-6-[(3S)-3-methylpiperazin-1-yl]pyrimidine-2,4-diamine]	20.4	–
CC(C)Nc1cc(N2CCNCC2)nc(N)n1 [Example 187, N^4-Isopropyl-6-piperazin-1-ylpyrimidine-2,4-diamine]	22.4	–
Nc1nc(NCC2CC2)cc(N2C[C@@H]3CCCN[C@@H]3C2)n1 [Example 210, N^4-(Cyclopropylmethyl)-6-[(4aS,7aS)-octahydro-6H-pyrrolo[3,4-b]pyridin-6-yl]pyrimidine-2,4-diamine]	48.9	–
CC(C)(C)CNc1cc(NC2C3CNCC32)nc(N)n1 (stereo not drawn) [Example 222, N^4-[(1R*,5S*,6s*)-3-Azabicyclo[3.1.0]hex-6-yl]-N^6-(2,2-dimethylpropyl)pyrimidine-2,4,6-triamine]	95.2	–
CNc1cc(N2CC[C@@H]3NCC[C@@H]3C2)nc(N)n1 (racemic) [Example 200, N^4Methyl-6-[(3aR*,7aS*)-octahydro-5H-pyrrolo[3,2-c]pyridin-5-yl]pyrimidine-2,4-diamine]	34	–
CCNc1cc(N2CCN(C)CC2)ncn1 [Example 103, N-Ethyl-6-(4-methylpiperazin-1-yl)pyrimidin-4-amine]	87.9	–
